Measured values taken from patent US9296760B2, “Antibacterial compounds” (JANSSEN SCIENCES IRELAND UC, priority 2012, dated 2016).
In brackets after ≈: the same amount, converted by molar mass.

Tests used:
[1] = biological target: T1, S. aureus ATCC 29213 FabI (Staphylococcus aureus, UniProt Q6GI75); experiment: Staphylococcus aureus FabI enzyme inhibition assay; type: biochemical; conditions: NADH consumption, 30 minutes, read-out: FabI (300.235) IC50 (converted)
T1 sequence (Q6GI75 1-256): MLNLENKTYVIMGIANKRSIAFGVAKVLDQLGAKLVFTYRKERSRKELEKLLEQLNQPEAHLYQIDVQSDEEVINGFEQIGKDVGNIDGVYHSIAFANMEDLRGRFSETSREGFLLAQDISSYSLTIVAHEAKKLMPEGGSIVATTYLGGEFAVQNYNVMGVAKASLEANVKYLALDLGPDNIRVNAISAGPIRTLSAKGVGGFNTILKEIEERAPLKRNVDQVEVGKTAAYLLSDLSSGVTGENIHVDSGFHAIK
Experimental: Y.1 FabI Enzyme Inhibition: Staphylococcus aureus FabI Enzyme Inhibition Assay
FabI enzyme inhibition assays were carried out in half-area, 384-well microtitre plates. […] The reaction mixtures were incubated for 30 minutes at room temperature and the reaction was stopped by adding 200 mM Tris buffer (pH 9.0) to create a pH-shift. The consumption of NADH was monitored by measuring the change in absorbance at […]. By comparing sample readings to those of negative (absence of compound) and positive (absence of enzyme) controls, the percent inhibition of enzymatic activity of the compounds was determined A best-fit curve is fitted by a minimum of squares method. From this an IC50-value (expressed in μg/ml), resulting in 50% inhibition of enzymatic activity, was obtained.

[2] = test system: Staphylococcus aureus ATCC 29213; experiment: Antibacterial susceptibility testing, IC90 determination (broth microdilution, resazurin); type: cell-based; conditions: 90% inhibitory concentration for bacterial growth; for STA (361.159) IC90: S. aureus ATCC 29213; for IC90: Staphylococcus aureus, ATCC29213, S. aureus ATCC 29213, read-out: STA (361.159) IC90
Experimental: Y.2 In Vitro Method for Testing Compounds for Antibacterial Activity Against Various Bacterial Strains
Preparation of Bacterial Suspensions for Susceptibility Testing
The following bacteria were used: Staphylococcus aureus ATCC 29213, methicillin-resistant Staphylococcus aureus (MRSA) ATCC 700788 and Escherichia coli ATCC 35218. The bacteria used in this study were grown overnight in flasks containing 100 ml Mueller-Hinton broth (Difco cat. nr. 0757-17) in sterile de-ionized water, with shaking, at 37° C. Stocks were store at −70° C. until use.
Bacteria were incubated on a tryptic soy agar plate containing 5% sheep blood (Becton Dickinson cat. nr. 254053) for 18-24 hours at 35° C. in aerobic conditions (first passage). For the second passage, fresh Mueller-Hinton broth is inoculated with 5-10 colonies and grown overnight at 35° C. until turbidity (reaching log-phase) in aerobic conditions is reached. The bacterial suspension is then adjusted to 0.5 McFarland density and further diluted 1:100 in Mueller Hinton broth medium. This is used as inoculum.
The result(s) are depicted the table below (for STA ATCC 29213).
Antibacterial Susceptibility Testing: IC90 Determination
(§1) MIC assays were performed by the broth microdilution method in a 96-well format (flat-bottom microtitre plates) with a final volume of 0.1 ml Mueller Hinton broth containing two-fold serial dilutions of compounds and inoculated with 5×10^5 CFU/ml of bacteria (standard inoculum size according to CLSI guidelines). Inhibitors are typically varied over the range of 63 to 0.49 μM. The final DMSO concentration in the assay was 1.25% (maximum tolerable DMSO concentration=6%). In the assays where the effect of human serum on the activity of the compounds against S. aureus was tested, human serum was added at a final concentration of 10%. The plates were incubated at 35° C. for 16-20 hours. At the end of incubation the bacterial growth was quantified fluorometrically. For this, resazurin was added to all wells and the plates were re-incubated. The incubation time is dependent on the type of bacteria. A change in color from blue to pink indicated the growth of bacteria. The fluorescence was read in computer-controlled fluorometer (Fluoroskan Ascent FL, Labsystems) at an excitation wavelength 540 nm and an emission wavelength of 590 nm. The % growth inhibition achieved by the compounds was calculated according to standard methods. The IC90 (expressed in μg/ml) was defined as the 90% inhibitory concentration for bacterial growth. A panel of reference compounds were simultaneously tested for QC approval.

S. aureus = experiment: Antibacterial susceptibility testing, IC90 determination with 10% human serum; type: cell-based, Staphylococcus aureus; conditions: S. aureus with human serum at final concentration of 10%; for IC90: Staphylococcus aureus, read-out: STA + 10% HS (361.169) IC90
Experimental: as §1, with “Antibacterial Susceptibility Testing: IC90 Determination MIC” for “MIC”, “approval. The results are depicted in the table(s) below (STA+10% HS).” for “approval.”

Human HelaM cells = experiment: Cytotoxicity MTT assay; type: cell-based; conditions: 72 hours
Experimental: (§2) Cytotoxicity of the compounds was evaluated using the MTT assay. Human HelaM cells grown in 96-well plates were exposed to serial dilutions of the tested compounds (final volume of 0.2 ml) and incubated for 72 hours at 37° C. and 5% CO2 Inhibitors are typically varied over the range of 25 to 0.8 μM. The final DMSO concentration in the assay is 0.5%. MTT (3-(4,5-Dimethylthiazol-2-yl)-2,5-diphenyltetrazolium bromide, a tetrazole) was added and reduced to purple formazan only in living cells. Solubilization of the formazan crystals was achieved by adding 100 μl 2-propanol. Cell viability was determined by measuring the absorbance of the reduced formazan, giving a purple color, at 540 nm and 690 nm. The absorbance measured at 690 nm was automatically subtracted from the absorbance at 540 nm, to eliminate the effects of non-specific absorption. The percent cytotoxicity achieved by the compounds was calculated according to standard methods. Cytotoxicity is reported as CC50, the concentration that causes a 50% reduction in cell viability.
(§3) The results are depicted in the table(s) below (HELAM).

Cytotoxicity MTT assay = type: cell-based, Human; conditions: human, HelaM cells, read-out: HELAM (222.125) CC50
Experimental: as §2, §3

Compound | IC50 [1] | STA (361.159) IC90 [2] | STA + 10% HS (361.169) IC90 (S. aureus) | HELAM (222.125) CC50 (Human HelaM cells) | IC90 [2] | IC90 (S. aureus) | CC50 at 72 h (Cytotoxicity MTT assay) | melting point
CN1CC(=O)Nc2ncc(/C=C/C(=O)N3CCC=C(c4ccccc4)CC3)cc2C1 [compound 40] | 721 nM | 0.53 µg/mL | 0.60 µg/mL | 24.25 µg/mL |  |  |  | 
COc1ccc(CN2CC(=O)Nc3ncc(/C=C/C(=O)N4CCC=C(c5ccccc5)CC4)cc3C2)cc1 [compound 44] | ~2810 nM |  |  |  | 4.8 µg/mL (≈ 9.44 µM) | 3.64 µg/mL | > 12.8 µg/mL | 198 °C
Cc1occc1C(=O)Nc1ccc(/C=C/C(=O)N2CCC=C(c3ccccc3)CC2)cn1 [compound 8] | 2130 nM |  |  |  | 0.84 µg/mL (≈ 1.96 µM) | 6.7 µg/mL | 5.64 µg/mL (≈ 13.2 µM) | 192 °C
O=C1Nc2ncc(/C=C/C(=O)N3CC=C(c4ccccc4)CCC3)cc2CN2CCOCC12 (centres unmarked) [compound 50] | 697 nM |  |  |  | 0.64 µg/mL (≈ 1.44 µM) | 1.58 µg/mL | 22 µg/mL (≈ 49.5 µM) | 220 °C
COc1ccc(F)cc1C1=CCCN(C(=O)/C=C/c2ccc(NC(=O)c3cccnc3)nc2)CC1 [compound 3] | 1630 nM |  |  |  | 0.45 µg/mL (≈ 0.952 µM) | 1.68 µg/mL | 1.13 µg/mL (≈ 2.39 µM) | 122 °C
O=C(Nc1ccc(/C=C/C(=O)N2CCC=C(c3ccccc3)CC2)cn1)c1c[nH]cn1 [compound 11] | 1620 nM |  |  |  | 1.26 µg/mL (≈ 3.05 µM) | 3.17 µg/mL | > 10.4 µg/mL | 120 °C
O=C(Nc1ccc(/C=C/C(=O)N2CCC=C(c3ccccc3)CC2)cn1)c1ccoc1 [compound 2] | 1190 nM |  |  |  | 0.44 µg/mL (≈ 1.06 µM) | 1.43 µg/mL | > 10.4 µg/mL | 156 °C
O=C(/C=C/c1ccc(Nc2ccccc2)nc1)N1CCC=C(c2ccccc2)CC1 [compound 14] | 2250 nM |  |  |  | 1.45 µg/mL (≈ 3.67 µM) | 24.1 µg/mL | 6.27 µg/mL (≈ 15.9 µM) | 150 °C
O=C1CNCc2cc(/C=C/C(=O)N3CCC=C(c4ccccc4)CC3)cnc2N1 [compound 36] | 747 nM | 0.46 µg/mL | 0.45 µg/mL | >19.47 µg/mL |  |  |  | 
CN1CC(=O)Nc2ncc(/C=C/C(=O)N3CC=C(c4cccs4)CCC3)cc2C1 [compound 43] | 2620 nM |  |  |  | 1.13 µg/mL (≈ 2.77 µM) | 1.32 µg/mL | > 10.3 µg/mL | 212 to 213 °C
O=C(Nc1ccc(/C=C/C(=O)N2CCC=C(c3ccccc3)CC2)cn1)C1CCOC1 (centres unmarked) [compound 20] | 934 nM |  |  |  | 6.69 µg/mL (≈ 16 µM) | 11.8 µg/mL | 10 µg/mL (≈ 24 µM) | 152 °C
O=C(Nc1ccc(/C=C/C(=O)N2CCC=C(c3ccccc3)CC2)cn1)c1cccnc1 [compound 1] | 730 nM |  |  |  | 0.4 µg/mL (≈ 0.942 µM) | 0.84 µg/mL | 0.43 µg/mL (≈ 1.01 µM) | 186 °C
COc1ccc(F)cc1C1=CCCN(C(=O)/C=C/c2cnc3c(c2)COC(=O)N3)CC1 [compound 35] | ~1020 nM |  |  |  | 0.38 µg/mL (≈ 0.897 µM) | 0.54 µg/mL | 6.56 µg/mL (≈ 15.5 µM) | 218.22 °C
Nc1ccc(/C=C/C(=O)N2CC=C(c3ccccc3)CCC2)cn1 [compound 21] | 3880 nM |  |  |  | 6.75 µg/mL (≈ 21.1 µM) | 12.9 µg/mL | 4.78 µg/mL (≈ 15 µM) | 184 °C
O=C1Nc2ncc(/C=C/C(=O)N3CCC=C(c4ccccc4)CC3)cc2CN2CCNCC12 (centres unmarked) [compound 52] | 21400 nM |  |  |  | 6.56 µg/mL (≈ 14.8 µM) | 4.75 µg/mL | > 11.1 µg/mL | 206 °C
CC(=O)N1CCN2Cc3cc(/C=C/C(=O)N4CCC=C(c5ccccc5)CC4)cnc3NC(=O)C2C1 (centres unmarked) [compound 47] | 783 nM |  |  |  | 0.25 µg/mL (≈ 0.515 µM) | 0.44 µg/mL | 17.6 µg/mL (≈ 36.3 µM) | 208 °C
O=C(/C=C/c1ccc(NC(=O)C(F)(F)F)nc1)N1CCC=C(c2ccccc2)CC1 [compound 22] | 1080 nM |  |  |  | 11.6 µg/mL (≈ 27.9 µM) | 12.1 µg/mL | 8.01 µg/mL (≈ 19.3 µM) | 159 °C
